{"source": "patent US8853237B2", "about": "“Naphthyridinone analogs as mGluR5 positive allosteric modulators” (Vanderbilt University, priority 2010, dated 2014)", "key": {"human mGluR5a receptor": {"biological_target": "human mGluR5a receptor (Homo sapiens, UniProt P41594)", "sequence (P41594 21-1180 isoform P41594-2 limits assumed)": "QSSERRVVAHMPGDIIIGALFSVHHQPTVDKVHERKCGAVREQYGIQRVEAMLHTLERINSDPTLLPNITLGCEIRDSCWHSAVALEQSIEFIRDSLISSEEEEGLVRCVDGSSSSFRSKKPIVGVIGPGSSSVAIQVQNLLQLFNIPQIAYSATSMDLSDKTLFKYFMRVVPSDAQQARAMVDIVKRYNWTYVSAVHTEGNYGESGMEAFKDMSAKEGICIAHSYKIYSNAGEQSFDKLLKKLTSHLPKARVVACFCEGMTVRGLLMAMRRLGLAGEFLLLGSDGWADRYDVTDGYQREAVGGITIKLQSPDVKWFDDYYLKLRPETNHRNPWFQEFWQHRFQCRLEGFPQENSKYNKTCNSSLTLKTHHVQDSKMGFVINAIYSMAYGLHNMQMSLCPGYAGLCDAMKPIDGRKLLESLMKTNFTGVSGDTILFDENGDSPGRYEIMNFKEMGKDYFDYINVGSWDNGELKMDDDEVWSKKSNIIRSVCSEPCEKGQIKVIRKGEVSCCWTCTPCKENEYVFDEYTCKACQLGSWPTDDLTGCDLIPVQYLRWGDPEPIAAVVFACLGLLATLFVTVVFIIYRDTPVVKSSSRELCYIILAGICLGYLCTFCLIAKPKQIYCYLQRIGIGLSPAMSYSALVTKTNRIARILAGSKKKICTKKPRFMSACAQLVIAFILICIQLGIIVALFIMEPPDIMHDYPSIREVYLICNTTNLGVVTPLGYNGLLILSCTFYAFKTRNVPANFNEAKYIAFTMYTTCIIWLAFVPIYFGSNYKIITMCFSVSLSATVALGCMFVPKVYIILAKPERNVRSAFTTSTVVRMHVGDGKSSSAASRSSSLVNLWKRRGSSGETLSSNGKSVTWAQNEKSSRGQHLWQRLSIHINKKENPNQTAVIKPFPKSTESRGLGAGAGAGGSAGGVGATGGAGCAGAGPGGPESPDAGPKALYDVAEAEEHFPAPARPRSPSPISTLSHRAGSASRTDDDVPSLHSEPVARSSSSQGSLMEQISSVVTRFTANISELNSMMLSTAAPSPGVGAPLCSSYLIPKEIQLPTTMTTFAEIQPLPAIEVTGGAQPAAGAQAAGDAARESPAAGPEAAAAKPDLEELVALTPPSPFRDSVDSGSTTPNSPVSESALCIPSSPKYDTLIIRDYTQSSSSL", "assay": "Cell-based functional assay: Ca2+ mobilization (FDSS), potentiation of glutamate EC20 response", "settings": "for EC50: HEK cells (H10H or H12H) transfected with human mGluR5, in presence of EC20 glutamate, >10 uM estimated where no plateau but >20% increase; for Emax: maximum average response at a single concentration, as percent of maximal glutamate response", "procedure": "Table 1 below lists specific compounds as well as experimentally determined mGluR5 activity determined in a cell-based assay. The mGluR5 activity was determined using the metabotropic glutamate receptor activity assays in human embryonic kidney cells as described herein, wherein the human embryonic kidney cells were transfected with human mGluR5. The compounds in Table 1 were synthesized with methods identical or analogous to those shown herein. The column labeled “Rxn” and the data thereunder indicated in Table 1 refers to the Reaction Scheme number described above. The requisite starting materials were commercially available, described in the literature, or readily synthesized by one skilled in the art of organic synthesis.\nHuman mGluR5a cDNA in pCMV6-XL6 mammalian expression plasmid was purchased from OriGene Technologies, Inc. (catalogue number SC326357) and subcloned into pcDNA3.1(−). Human embryonic kidney (HEK)293A cells were then transfected with human mGluR5a pcDNA3.1(−) using LipofectAmine2000 (Invitrogen) and monoclones were selected and tested for functional response using a Ca^2+ mobilization assay. Monoclones were named for the species (“H” for human) plus the location on the plate (e.g. “10H”).\nHEK cells transfected with the human mGluR5a receptor (H10H or H12H cell line) were plated at 15,000 cells/well in clear-bottomed poly-D-lysine-coated assay plates (BD Falcon) in glutamate-glutamine-free growth medium and incubated overnight at 37° C. and 5% CO2. Cell-lines used were either the H10H or H12H cell-lines expressing the human mGluR5 receptor. The following day, the growth medium was removed and the cells were washed with assay buffer containing 1× Hank's balanced salt solution (Invitrogen, Carlsbad, Calif.), 20 mM HEPES, 2.5 mM probenecid, pH 7.4 and left with 20 μL of this reagent. Following this step, the cells were loaded with calcium indicator dye, fluo-4 AM, to a final concentration of 2 μM and incubated for 40-45 min at 37° C. The dye solution was removed and replaced with assay buffer. Cell plates were held for 10-15 min at room temperature and were then loaded into the Functional Drug Screening System 6000 (FDSS 6000, Hamamatsu, Japan).\nAfter establishment of a fluorescence baseline for about 3 seconds, the compounds of the present invention were added to the cells, and the response in cells was measured. 2.3 minutes later an EC20 concentration of the mGluR5 receptor agonist glutamate was added to the cells, and the response of the cells was measured for about 1.7 minutes. All test compounds were dissolved and diluted to a concentration of 10 mM in 100% DMSO and then serially diluted into assay buffer for a 2× stock solution in 0.6% DMSO; stock compounds were then added to the assay for a final DMSO concentration of 0.3% after the first addition to the assay well. Calcium fluorescence measures were recorded as fold over basal fluorescence; raw data was then normalized to the maximal response to glutamate. Potentiation of the agonist response of the mGluR5 receptor in the present invention was observed as an increase in response to submaximal concentrations of glutamate in the presence of compound compared to the response to glutamate in the absence of compound.\nThe concentration-response curves of compounds of the present invention, obtained in the presence of EC20 of mGluR5 receptor agonist glutamate to determine positive allosteric modulation, were generated using Microsoft Excel with IDBS XLfit add-ins. The raw data file containing all time points was used as the data source in the analysis template. This was saved by the FDSS as a tab-delimited text file. Data were normalized using a static ratio function (F/F0) for each measurement of the total 350 values per well divided by each well's initial value. Data was then reduced as to peak amplitudes (Max—Initial Min) using a time range that starts approximately 1 second after the glutamate EC20 addition and continues for approximately 40 seconds. […]"}, "[1]": {"system": "amphetamine-induced hyperlocomotion", "assay": "Reversal of amphetamine-induced hyperlocomotion", "type": "in vivo, male Sprague-Dawley rats", "settings": "10 mg/kg, vehicle 20% HP-beta-CD; amphetamine 1 mg/kg sc; rat", "procedure": "Locomotor activity was assessed as mean distance traveled (cm) in standard 16×16 photocell testing chambers measuring 43.2 cm (Length)×43.2 cm (Width)×30.5 cm (Height) (Med Associates, St. Albans, Vt.). Animals were habituated to individual activity chambers for at least 30 min prior to drug administration. Following administration of drug or vehicle, activity was recorded for a […] time period. Data was expressed as the mean (±SEM) distance traveled recorded in 5 min intervals over the test period. The data were analyzed using repeated measures analysis of variance (ANOVA) followed by post-hoc testing using Dunnett's test, when appropriate. A difference was considered significant when p≦0.05. Amphetamine sulfate was obtained from Sigma (Cat#A5880-1G; St. Louis, Mo.) and 10 mg was dissolved in 10 ml of water. Test compound, 2-((3-fluorobenzyl)oxy)-7,8-dihydro-1,6-naphthyridin-5(6H)-one, was formulated in a volume of 10 ml with an amount of drug appropriate to the dosage indicated. […] At 60 min, all rats were injected subcutaneously with 1 mg/kg amphetamine or vehicle and then monitored for an additional 60 min. Animals are monitored for a total of 120 minutes. Data are expressed as changes in ambulation defined as total number of beam breaks per 5 min periods. The data for the dose-response studies were analyzed by a between-group analysis of variance. […]"}}, "data": [{"smiles": "COc1ccc(CN2CCc3ncc(OCc4ccccc4)cc3C2=O)cc1", "note": "[compound 14]", "values": [{"measurement": "EC50", "setting": "human mGluR5a receptor", "value": "> 10000", "unit": "nM"}, {"measurement": "Emax", "setting": "human mGluR5a receptor", "value": 46, "unit": "%"}]}, {"smiles": "O=C1c2ccc(OCc3ccccc3)nc2CCN1CC1CCC1", "note": "[compound 24]", "values": [{"measurement": "EC50", "setting": "human mGluR5a receptor", "value": 441, "unit": "nM"}, {"measurement": "Emax", "setting": "human mGluR5a receptor", "value": 49, "unit": "%"}]}, {"smiles": "O=C1NCCc2ncc(OCc3ccccc3)cc21", "note": "[compound 15]", "values": [{"measurement": "EC50", "setting": "human mGluR5a receptor", "value": "> 10000", "unit": "nM"}, {"measurement": "Emax", "setting": "human mGluR5a receptor", "value": 43, "unit": "%"}]}, {"smiles": "O=C1c2ccc(OCc3cccc(F)c3)nc2CCN1c1cccc(F)c1", "note": "[compound 4]", "values": [{"measurement": "EC50", "setting": "human mGluR5a receptor", "value": 980, "unit": "nM"}, {"measurement": "Emax", "setting": "human mGluR5a receptor", "value": 41, "unit": "%"}]}, {"smiles": "O=C1NCCc2nc(OCc3cccc(F)c3)ccc21", "note": "[compound 1]", "values": [{"measurement": "EC50", "setting": "human mGluR5a receptor", "value": 370, "unit": "nM"}, {"measurement": "Emax", "setting": "human mGluR5a receptor", "value": 71, "unit": "%"}]}, {"smiles": "O=C1c2cc(OCc3ccccc3)cnc2CCN1c1ccc(F)cc1", "note": "[compound 21]", "values": [{"measurement": "EC50", "setting": "human mGluR5a receptor", "value": "> 10000", "unit": "nM"}, {"measurement": "Emax", "setting": "human mGluR5a receptor", "value": 34, "unit": "%"}]}, {"smiles": "C[C@H](N1CCc2cc(COc3ccccc3)cnc2C1=O)C(C)(C)C", "note": "[compound 27]", "values": [{"measurement": "EC50", "setting": "human mGluR5a receptor", "value": "> 30000", "unit": "nM"}, {"measurement": "Emax", "setting": "human mGluR5a receptor", "value": 15, "unit": "%"}]}, {"smiles": "Cc1cccc(N2CCc3ncc(OCc4ccccc4)cc3C2=O)n1", "note": "[compound 20]", "values": [{"measurement": "EC50", "setting": "human mGluR5a receptor", "value": "> 30000", "unit": "nM"}]}, {"smiles": "CN1CCc2cc(COc3ccccc3)cnc2C1=O", "note": "[compound 26]", "values": [{"measurement": "EC50", "setting": "human mGluR5a receptor", "value": "> 30000", "unit": "nM"}, {"measurement": "Emax", "setting": "human mGluR5a receptor", "value": 21, "unit": "%"}]}, {"smiles": "O=C1c2cc(OCc3ccccc3)cnc2CCN1c1cccnc1", "note": "[compound 19]", "values": [{"measurement": "EC50", "setting": "human mGluR5a receptor", "value": "> 30000", "unit": "nM"}]}, {"smiles": "O=C1c2cc(OCc3ccccc3)cnc2CCN1CC1CCC1", "note": "[compound 22]", "values": [{"measurement": "EC50", "setting": "human mGluR5a receptor", "value": 2760, "unit": "nM"}, {"measurement": "Emax", "setting": "human mGluR5a receptor", "value": 52, "unit": "%"}]}, {"smiles": "O=C1c2ccc(OCc3ccccc3)nc2CCN1c1ccc(F)cc1", "note": "[compound 23]", "values": [{"measurement": "EC50", "setting": "human mGluR5a receptor", "value": 125, "unit": "nM"}, {"measurement": "Emax", "setting": "human mGluR5a receptor", "value": 66, "unit": "%"}]}, {"smiles": "COc1ccc(CN2CCc3nc(OCc4cccc(F)c4)ccc3C2=O)cc1C(F)(F)F", "note": "[compound 3]", "values": [{"measurement": "EC50", "setting": "human mGluR5a receptor", "value": "> 10000", "unit": "nM"}, {"measurement": "Emax", "setting": "human mGluR5a receptor", "value": 40, "unit": "%"}]}, {"smiles": "O=C1c2ccc(COc3cccc(F)c3)nc2CCN1c1ccc(F)cn1", "note": "[compound 7]", "values": [{"measurement": "EC50", "setting": "human mGluR5a receptor", "value": 360, "unit": "nM"}, {"measurement": "Emax", "setting": "human mGluR5a receptor", "value": 66, "unit": "%"}]}, {"smiles": "O=C1NCCc2cc(COc3ccccc3)cnc21", "note": "[compound 25]", "values": [{"measurement": "EC50", "setting": "human mGluR5a receptor", "value": "> 30000", "unit": "nM"}, {"measurement": "Emax", "setting": "human mGluR5a receptor", "value": 43, "unit": "%"}]}, {"smiles": "COc1ccc(CN2CCc3ncc(COc4cccc(F)c4)cc3C2=O)cc1", "note": "[compound 12]", "values": [{"measurement": "EC50", "setting": "human mGluR5a receptor", "value": 1600, "unit": "nM"}, {"measurement": "Emax", "setting": "human mGluR5a receptor", "value": 64, "unit": "%"}]}, {"smiles": "O=C1c2ccc(OCc3cccc(F)c3)nc2CCN1CC1CCC1", "note": "[compound 11]", "values": [{"measurement": "EC50", "setting": "human mGluR5a receptor", "value": 630, "unit": "nM"}, {"measurement": "Emax", "setting": "human mGluR5a receptor", "value": 39, "unit": "%"}]}, {"smiles": "O=C1c2ccc(OCc3cccc(F)c3)nc2CCN1c1ccc(F)cn1", "note": "[compound 5]", "values": [{"measurement": "EC50", "setting": "human mGluR5a receptor", "value": "> 10000", "unit": "nM"}, {"measurement": "Emax", "setting": "human mGluR5a receptor", "value": 40, "unit": "%"}]}, {"smiles": "O=C1c2ncc(COc3ccccc3)cc2CCN1c1ccc(F)cc1", "note": "[compound 8]", "values": [{"measurement": "EC50", "setting": "human mGluR5a receptor", "value": 730, "unit": "nM"}, {"measurement": "Emax", "setting": "human mGluR5a receptor", "value": 76, "unit": "%"}]}, {"smiles": "CN1CCc2ncc(COc3cccc(F)c3)cc2C1=O", "note": "[compound 13]", "values": [{"measurement": "EC50", "setting": "human mGluR5a receptor", "value": "> 10000", "unit": "nM"}, {"measurement": "Emax", "setting": "human mGluR5a receptor", "value": 44, "unit": "%"}]}, {"smiles": "O=C1c2cc(OCc3ccccc3)cnc2CCN1c1ccc(F)cc1F", "note": "[compound 18]", "values": [{"measurement": "EC50", "setting": "human mGluR5a receptor", "value": "> 10000", "unit": "nM"}, {"measurement": "Emax", "setting": "human mGluR5a receptor", "value": 67, "unit": "%"}]}, {"smiles": "O=C1c2cc(OCc3ccccc3)cnc2CCN1c1ccccn1", "note": "[compound 17]", "values": [{"measurement": "EC50", "setting": "human mGluR5a receptor", "value": "> 30000", "unit": "nM"}]}, {"smiles": "O=C1NCCc2nc(OCc3cccc(Cl)c3)ccc21", "note": "[compound 9]", "values": [{"measurement": "EC50", "setting": "human mGluR5a receptor", "value": 190, "unit": "nM"}, {"measurement": "Emax", "setting": "human mGluR5a receptor", "value": 55, "unit": "%"}]}, {"smiles": "O=C1c2ccc(OCc3cccc(F)c3)nc2CCN1Cc1cccc(Cl)c1F", "note": "[compound 2]", "values": [{"measurement": "EC50", "setting": "human mGluR5a receptor", "value": 4200, "unit": "nM"}, {"measurement": "Emax", "setting": "human mGluR5a receptor", "value": 39, "unit": "%"}]}, {"smiles": "O=C1c2ccc(COc3cccc(F)c3)nc2CCN1c1ccc(F)cc1", "note": "[compound 6]", "values": [{"measurement": "EC50", "setting": "human mGluR5a receptor", "value": 200, "unit": "nM"}, {"measurement": "Emax", "setting": "human mGluR5a receptor", "value": 72, "unit": "%"}]}, {"smiles": "O=C1c2ccc(OCc3ccccc3)nc2CCN1c1ccc(F)cc1", "note": "[2-(benzyloxy)-6-(4-fluorophenyl)-7,8-dihydro-1,6-naphthyridin-5(6H)-one]", "values": [{"measurement": "apparent reversal of amphetamine-induced hyperlocomotion", "setting": "[1]", "value": 35, "unit": "%"}]}, {"smiles": "O=C1NCCc2nc(OCc3ccccc3F)ccc21", "note": "[compound 10]", "values": [{"measurement": "EC50", "setting": "human mGluR5a receptor", "value": 700, "unit": "nM"}, {"measurement": "Emax", "setting": "human mGluR5a receptor", "value": 79, "unit": "%"}]}]}
